Test results as given in patent US20240049711A1, “HERBICIDE COMPOSITION AND WEED CONTROLLING METHOD” (SUMITOMO CHEMICAL COMPANY, LIMITED, priority 2020, published 2024).
Where a name gives a salt, the structure may show the parent alone.

Tests used:
Assay type in all cases: in vivo
[1] = test system: common barnyardgrass (Echinochloa crus-galli); experiment: Example 215: greenhouse pot test, spray above the pot 25 days after seeding; details: rating 0 to 100; application rate compound X 10 g/ha, mesotrione 35 g/ha; 216 L/ha; 18 days after spraying
Method: A formulation was produced by dissolving a predetermined amount of mesotrione in DMF containing 2% Tween 20 (polyoxyethylene (20) sorbitan monolaurate) (called mesotrione formulation).
(§1) After filling a plastic pot with soil, common barnyardgrass (Echinochloa crus-galli) was seeded therein and grown in a greenhouse. […] Thereafter, the weeds were grown in the greenhouse for 18 days and the herbicidal effect was evaluated.

[2] = test system: common barnyardgrass (Echinochloa crus-galli); experiment: Example 217: greenhouse pot test, spray above the pot 25 days after seeding; details: rating 0 to 100; application rate (table) compound X 10 g/ha, flumioxazin 30 g/ha; 216 L/ha; 18 days after spraying
Method: A formulation was produced by dissolving a predetermined amount of flumioxazin in DMF containing 2% Tween 20 (polyoxyethylene (20) sorbitan monolaurate) (called flumioxazin formulation).
as §1

[3] = test system: Italian ryegrass (Lolium multiflorum); experiment: Example 208: greenhouse pot test, spray above the pot 21 days after seeding; details: rating 0 to 100; application rate compound X 15 g/ha, clethodim 53 g/ha; 200 L/ha; evaluated 6 days after spraying
Method: The compound X (55 mg) produced in Reference Production Example 1, 76.5 mg of Emulsogen TS290 (polyoxyethylene tristyryl phenyl ether, manufactured by Clariant) and 76.5 mg of Phenylsulfonat CAL (mixture of 70% calcium dodecylbenzenesulfonate and 30% iso-butanol, manufactured by Clariant) were dissolved in Solvesso 200ND (aromatic hydrocarbon, manufactured by Exxon Mobile Corporation) to make 1 ml in total, thus producing an emulsifiable concentrate (hereinafter referred to as formulation X).
After filling a plastic pot with soil, Italian ryegrass (Loliism multiflorum) was seeded therein and grown in a greenhouse.

[4] = test system: Italian ryegrass (Lolium multiflorum); experiment: Example 209: greenhouse pot test, spray above the pot 21 days after seeding; details: rating 0 to 100; application rate compound X 15 g/ha, pendimethalin 560 g/ha; 200 L/ha; evaluated 6 or 8 days after spraying
Method: (§2) After filling a plastic pot with soil, Italian ryegrass (Lolium multiflorum) and giant foxtail (Setaria faberi) were seeded therein and grown in a greenhouse.

[5] = test system: giant foxtail (Setaria faberi); experiment: as above; details: rating 0 to 100; application rate compound X 15 g/ha, pendimethalin 560 g/ha; 200 L/ha; evaluated 6 or 8 days after spraying
Method: as §2

[6] = test system: Italian ryegrass (Lolium multiflorum); experiment: Example 212: greenhouse pot test, spray above the pot 21 days after seeding; details: rating 0 to 100; application rate compound X 15 g/ha, glyphosate potassium salt 630 g/ha; 200 L/ha; evaluated 6 days after spraying
Method: as §2

[7] = test system: giant foxtail (Setaria faberi); experiment: as above; details: rating 0 to 100; application rate compound X 15 g/ha, glyphosate potassium salt 630 g/ha; 200 L/ha; evaluated 6 days after spraying
Method: as §2

Italian ryegrass = experiment: Example 213: greenhouse pot test, spray above the pot 21 days after seeding; details: rating 0 to 100; application rate compound X 15 g/ha, glufosinate ammonium salt 297 g/ha; 200 L/ha; evaluated 8 days after spraying
[8] = test system: common barnyardgrass (Echinochloa crus-galli); experiment: Example 214: greenhouse pot test, spray above the pot 25 days after seeding; details: rating 0 to 100; application rate compound X 10 g/ha, chlorimuron-ethyl 16 g/ha; 216 L/ha; 18 days after spraying
Method: A formulation was produced by dissolving a predetermined amount of chlorimuron-ethyl in DMF containing 2% Tween 20 (polyoxyethylene (20) sorbitan monolaurate) (called chlorimuron-ethyl formulation).
After filling a plastic pot with soil, common barnyardgrass (Echinochloa crus-galli) was seeded therein and grown in a greenhouse. […] Thereafter, the weeds were grown in the greenhouse for 18 days and the herbicidal effect was estimated.

[9] = test system: common barnyardgrass (Echinochloa crus-galli); experiment: Example 216: greenhouse pot test, spray above the pot 25 days after seeding; details: rating 0 to 100; application rate compound X 10 g/ha, metribuzin 105 g/ha; 216 L/ha; 18 days after spraying
Method: A formulation was produced by dissolving a predetermined amount of metribuzin in DMF containing 2% Tween 20 (polyoxyethylene (20) sorbitan monolaurate) (called metribuzin formulation).
as §1

[10] = test system: common barnyardgrass (Echinochloa crus-galli); experiment: Example 218: greenhouse pot test, spray above the pot 25 days after seeding; details: rating 0 to 100; application rate (table) compound X 10 g/ha, pyroxasulfone 40 g/ha; 216 L/ha; 18 days after spraying
Method: A formulation was produced by dissolving a predetermined of pyroxasulfone in DMF containing 2% Tween 20 (polyoxyethylene (20) sorbitan monolaurate) (called pyroxasulfone formulation).
as §1

SMILES: CS(=O)(=O)c1ccc(C(=O)C2C(=O)CCCC2=O)c([N+](=O)[O-])c1 [Mesotrione, mesotrione]
- Herbicidal effect on common barnyardgrass (observed value) [1]: 40

SMILES: C#CCN1C(=O)COc2cc(F)c(N3C(=O)C4=C(CCCC4)C3=O)cc21 [Flumioxazin, flumioxazin]
- Herbicidal effect on common barnyardgrass (observed value) [2]: 55

SMILES: CCOC(=O)COC(=O)C1(Oc2cc(-n3c(=O)cc(C(F)(F)F)n(C)c3=O)c(F)cc2Cl)CC1 [Compound X]
- Herbicidal effect on Italian ryegrass (observed value) [3]: 20
- Herbicidal effect on Italian ryegrass (observed value) [4]: 20
- Herbicidal effect on giant foxtail (observed value) [5]: 70
- Herbicidal effect on Italian ryegrass (observed value) [6]: 20
- Herbicidal effect on giant foxtail (observed value) [7]: 70
- Herbicidal effect on Italian ryegrass (observed value) (Italian ryegrass): 20
- Herbicidal effect on common barnyardgrass (observed value) [8]: 45
- Herbicidal effect on common barnyardgrass (observed value) [1]: 45
- Herbicidal effect on common barnyardgrass (observed value) [9]: 45
- Herbicidal effect on common barnyardgrass (observed value) [2]: 45
- Herbicidal effect on common barnyardgrass (observed value) [10]: 45

SMILES: CCC(CC)Nc1c([N+](=O)[O-])cc(C)c(C)c1[N+](=O)[O-] [Pendimethalin, pendimethalin]
- Herbicidal effect on Italian ryegrass (observed value) [4]: 0
- Herbicidal effect on giant foxtail (observed value) [5]: 0

SMILES: CCSC(C)CC1CC(=O)C(/C(CC)=N/OC/C=C/Cl)=C(O)C1 (stereo not shown) [Clethodim, clethodim]
- Herbicidal effect on Italian ryegrass (observed value) [3]: 10

SMILES: O=C(O)CNCP(=O)(O)O [Glyphosate potassium salt, glyphosate potassium salt]
- Herbicidal effect on Italian ryegrass (observed value) [6]: 50
- Herbicidal effect on giant foxtail (observed value) [7]: 40

SMILES: CSc1nnc(C(C)(C)C)c(=O)n1N [Metribuzin, metribuzin]
- Herbicidal effect on common barnyardgrass (observed value) [9]: 8

SMILES: CP(=O)(O)CCC(N)C(=O)O (stereo not shown) [Glufosinate ammonium salt, glufosinate ammonium salt]
- Herbicidal effect on Italian ryegrass (observed value) (Italian ryegrass): 80

SMILES: Cn1nc(C(F)(F)F)c(CS(=O)(=O)C2=NOC(C)(C)C2)c1OC(F)F [Pyroxasulfone, pyroxasulfone]
- Herbicidal effect on common barnyardgrass (observed value) [10]: 2

SMILES: CCOC(=O)c1ccccc1S(=O)(=O)NC(=O)Nc1nc(Cl)cc(OC)n1 [Chlorimuron-ethyl, chlorimuron-ethyl]
- Herbicidal effect on common barnyardgrass (observed value) [8]: 45
